“And” between values parts separate entries of the source, which are not always exact repeats. Identical values can stand only once.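 Five compound concentrations were applied to cells in 96-well plates for 48 hours; endpoints were derived by simple linear interpolation of the resulting dose-response curve. GI50: concentration for 50% inhibition of growth. TGI marks complete inhibition of growth.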
Assays:
Experiment in all cases: NCI tumour cell line growth inhibition, 48 h
786-0 renal = system: 786-0 renal
BT-549 breast = system: BT-549 breast
HCC-2998 colon = system: HCC-2998 colon
HOP-62 NSCLC = system: HOP-62 NSCLC
HS 578T breast = system: HS 578T breast
MDA-MB-231 breast = system: MDA-MB-231 breast
MDA-MB-435 = system: MDA-MB-435
NCI-H460 lung = system: NCI-H460 lung
NCI/ADR-RES ovarian = system: NCI/ADR-RES ovarian
T-47D breast = system: T-47D breast

| SMILES | GI50 (786-0 renal) | TGI (786-0 renal) | GI50 (BT-549 breast) | TGI (BT-549 breast) | GI50 (HCC-2998 colon) | TGI (HCC-2998 colon) | GI50 (HOP-62 NSCLC) | TGI (HOP-62 NSCLC) [µM] | GI50 (HS 578T breast) | TGI (HS 578T breast) | GI50 (MDA-MB-231 breast) | TGI (MDA-MB-231 breast) | GI50 (MDA-MB-435) | TGI (MDA-MB-435) | GI50 (NCI-H460 lung) | TGI (NCI-H460 lung) | GI50 (NCI/ADR-RES ovarian) | TGI (NCI/ADR-RES ovarian) | GI50 (T-47D breast) | TGI (T-47D breast) |
| --- | --- | --- | --- | --- | --- | --- | --- | --- | --- | --- | --- | --- | --- | --- | --- | --- | --- | --- | --- | --- |
| COc1cccc2nc(Nc3cccc(NC(=O)c4ccc(N5CCN(C)CC5)c(C(F)(F)F)c4)c3)ccc12 | 0.923 µM | 1.78 µM | 2.79 µM | 9.39 µM | 0.95 µM | 1.78 µM | 0.856 µM | 1.74 | 1.07 µM | 2.93 µM | 1.55 µM | 5.88 µM | 0.878 µM | 1.73 µM | 0.964 µM | 1.98 µM | 1.5 µM | 4.95 µM | 1 µM | 3.37 µM |
| COc1ccc2c(c1)OCC1c3cc(OC)c4ccccc4c3OC21 (centres undefined) | 26.1 µM | > 100 µM | 11.5 µM | 97.2 µM | 1.98 µM | 7.26 µM | 14.7 µM | > 100 | 11.3 µM | 37 µM | 8.68 µM | 82.9 µM | 2.56 µM | 7.46 µM | 4.44 µM | > 100 µM | 4 µM | 28.2 µM | 13.7 µM | 47 µM |
| O=S(=O)(NCCNc1nccc(-c2c(-c3ccc(F)cc3)nc3sccn23)n1)c1ccc(O)cc1 | 4.26 µM | 39.7 µM | 3.14 µM | 19.1 µM | 15.5 µM | 51.1 µM | 14.3 µM | 85.6 | 6.48 µM | 42.7 µM | 7.77 µM | 70.1 µM | 1.07 µM | 14.8 µM | 0.845 µM | 27.8 µM | 19.5 µM | > 100 µM | 2.36 µM | 19.2 µM |
| C=C(C(=O)c1ccccc1)C(NC(C)(C)C)c1ccccc1 (centres undefined) | 2.06 µM | 4.08 µM | 2.13 µM | 4.6 µM | 1.81 µM | 3.38 µM | 3.38 µM | 10.4 | 5.56 µM | 75.9 µM | 2.06 µM | 4.84 µM | 2.11 µM | 11 µM | 2.15 µM | 5.23 µM | 2.63 µM | 12.4 µM | 2.44 µM | 6.78 µM |
| CC(C)n1cc(-c2ccc3c(c2)N(C)CC3)c2c(NS(=O)(=O)c3ccn(C)n3)ccnc21 | 43.7 µM | > 100 µM | 25.3 µM | > 100 µM | > 100 µM | > 100 µM | > 100 µM | > 100 | 37 µM | > 100 µM | 76.1 µM | > 100 µM | 83 µM | > 100 µM | 47.9 µM | > 100 µM | 49.5 µM | > 100 µM | 29.7 µM | > 100 µM |
| CC(=O)OC1C(O)C(C)OC(OC2C(OC(=O)C3CCC4C(C3)OC3(CC(OC(=O)/C=C/c5ccccc5)C(C)CO3)C43CO3)OC(C)C(O)C2OC(C)=O)C1O (centres undefined) | – | 0.132 µM | – | 0.0147 µM | – | 0.0148 µM | – | 0.0519 | – | 0.00669 µM | – | 0.101 µM | – | 0.00649 µM | – | 0.141 µM | – | > 2.5 µM | – | 0.0441 µM |
| O=C1NC(c2ccc3ccccc3c2)Nc2ccccc21 (centres undefined) | – | > 100 µM | – | 37.1 µM | – | > 100 µM | – | > 100 | – | > 100 µM | – | > 100 µM | – | 50.7 µM | – | > 100 µM | – | > 100 µM | – | > 100 µM |
| CCCCCc1cc(/C=C2/N=C(c3ccc[nH]3)C=C2OC)[nH]c1C | – | < 0.0459 µM | – | 0.292 µM | – | 1.02 µM | – | 0.362 | – | 0.0191 µM | – | 0.0999 µM | – | 0.187 µM | – | 1.26 µM | – | 1.14 µM | – | 0.421 µM |
| COc1ccc2[nH]c(C(=O)OCc3ccc4c(Br)cc(Br)c(O)c4n3)cc2c1 | 1.23 µM | 2.61 µM | 0.881 µM | 2.16 µM | 1.57 µM | 3.06 µM | 1.38 µM | 3.34 | 1.66 µM | 4.97 µM | 0.808 µM | 2.17 µM | 0.836 µM | 2.2 µM | 1.48 µM | 3.18 µM | 1.68 µM | 7.3 µM | 1.15 µM | 3.57 µM |
| CO/N=C(/C)COc1ccc2c(c1)oc(=O)c1cc(OC)ccc12 | > 100 µM | > 100 µM | > 100 µM | > 100 µM | > 100 µM | > 100 µM | 95.3 µM | > 100 | > 100 µM | > 100 µM | 34.1 µM | > 100 µM | > 100 µM | > 100 µM | > 100 µM | > 100 µM | > 100 µM | > 100 µM | > 100 µM | > 100 µM |
| CN1C(=O)C(N=Nc2ccc([N+](=O)[O-])cc2)SC1=S (centres undefined) | 8.12 µM and 10.7 µM | 80 µM and 58.2 µM | 4.45 µM and 6.28 µM | 42.8 µM and 40.6 µM | 3.21 µM and 6.71 µM | 48.2 µM and 49.6 µM | 9.55 µM and 12.2 µM | > 100 | 2.47 µM and 16.2 µM | 22.5 µM and > 100 µM | 13.3 µM and 11.7 µM | 51 µM and 44.3 µM | 3.86 µM and 16.1 µM | 32.3 µM and 77.1 µM | 2.98 µM and 5.43 µM | 24.9 µM and > 100 µM | 2.62 µM and 4.58 µM | 64.4 µM and 37 µM | 2.71 µM and 4.26 µM | > 100 µM and 47.5 µM |
| CS(=O)(=O)Nc1cc(-c2ccc3ncc(C#N)c(Nc4ccc(F)c(Cl)c4)c3c2)cnc1Cl | 0.256 µM | – | 0.0542 µM | 0.655 µM | 0.382 µM | 1.55 µM | 0.195 µM | 8.42 | 0.131 µM | 0.798 µM | 0.237 µM | 0.786 µM | 0.22 µM | 1.85 µM | 0.301 µM | > 29.1 µM | 0.633 µM | > 100 µM | 0.0351 µM | 0.403 µM |
| CC[C@]12C=CCN3CC[C@@]4(c5ccc(OC)cc5N(C)[C@H]4[C@@](O)(C(=O)OC)[C@@H]1OC(=O)CCC(=O)O[C@H]1CC[C@H]4[C@@H]5CCC6=CC(=O)CC[C@@H]6[C@H]5CC[C@]14C)[C@@H]32 | 1.99 µM | > 50 µM | 1.62 µM | 9.38 µM | 1.98 µM | > 50 µM | 2.4 µM | > 50 | 2.38 µM | > 50 µM | 2.21 µM | > 50 µM | 1.93 µM | > 50 µM | 3.01 µM | > 50 µM | 1.69 µM | > 50 µM | 1.79 µM | > 50 µM |
| CC(C)c1cnc(-c2cc(Cl)ccc2F)cc1Nc1ccncc1C(=O)NC(CO)CO | 14.1 µM | 37.1 µM | 14.8 µM | 31.9 µM | 17.6 µM | 33.2 µM | 12.8 µM | 32.9 | 7.31 µM | 30.6 µM | 15.3 µM | 44.3 µM | 16.1 µM | 30.4 µM | 12.5 µM | 28.3 µM | 20.8 µM | 63.2 µM | 4.5 µM | 34.8 µM |
| Cn1c2c(c3ccccc31)CCN1C[C@@H]3CCCC[C@H]3C[C@@H]21 | 3.58 µM | 17.5 µM | 3.04 µM | 9.19 µM | 2.1 µM | 5.48 µM | 3.32 µM | > 36.2 | 4.51 µM | > 100 µM | 2.88 µM | 8.66 µM | 1.56 µM | > 20.6 µM | 3.34 µM | > 36.1 µM | 0.928 µM | 9.7 µM | 14.1 µM | > 100 µM |
| Cc1cc(S(=O)(=O)Nc2nc3ccccc3c(=O)n2Cc2ccco2)c(S)cc1Cl | 36.1 µM | > 100 µM | 15.7 µM | 51.9 µM | 38.6 µM | > 100 µM | 32.8 µM | 69.6 | 30.5 µM | > 100 µM | 38.5 µM | > 100 µM | 41.2 µM | > 100 µM | 33.3 µM | > 100 µM | 54.8 µM | > 100 µM | 15 µM | 81.4 µM |
| CCN1CCN(Cc2ccc(Nc3ncc(F)c(-c4cc(F)c5nc(C)n(C(C)C)c5c4)n3)nc2)CC1 | 4.74 µM | 13.2 µM | 6.54 µM | 13.7 µM | 5.35 µM | 11.5 µM | 6.68 µM | 13.8 | 0.745 µM | 15.3 µM | 6.29 µM | 13 µM | 0.191 µM | 10.7 µM | 0.959 µM | 12.7 µM | 10.4 µM | 26.2 µM | 19.3 µM | 29 µM |
| CCOC(=O)C#Cc1cccc(C#CC(=O)OCC)c1 | – | 8.85 µM | – | 5.1 µM | – | 2.1 µM | – | 11.6 | – | > 30.3 µM | – | 11.2 µM | – | 9.52 µM | – | 39.2 µM | – | 14.6 µM | – | 98.4 µM |
| COc1cc(-c2oc3c(OC)c(O)c(OC)c(O)c3c(=O)c2OC)cc(OC)c1OC | – | > 100 µM | – | > 100 µM | – | > 100 µM | – | > 100 | – | 64.9 µM | – | > 100 µM | – | > 100 µM | – | > 100 µM | – | > 100 µM | – | > 100 µM |
| CC(=O)Oc1ccc(C2OC(c3ccc4ccccc4c3OC(C)=O)=NN2C(C)=O)c(OC(C)=O)c1 (centres undefined) | 0.479 µM | > 77.2 µM | 0.841 µM | 76.3 µM | 0.427 µM | 29 µM | 0.513 µM | > 100 | 12 µM | > 100 µM | 0.506 µM | > 89.6 µM | 0.638 µM | > 65 µM | 0.346 µM | > 36 µM | 0.394 µM | > 74.1 µM | 0.664 µM | > 52.6 µM |

From PubChem BioAssay (NCI)
